Our source for the mortality, IC50 and Activity values is ChEMBL document CHEMBL5532712, “A Screening of 10,240 NatureBank Fractions Identifies Nematicidal Activity in Agelasine-Containing Extracts from Sponges” (J Nat Prod, 2024).

A short description of data set [1]: Toxicity in Zebrafish embryo assessed as reduction in viability at 50 uM measured after 24 hrs by microscope based analysis relative to control. More on the design: species or system Danio rerio. Particulars: read-out: Activity.
Data set [2] can be described thus: Toxicity in Zebrafish embryo assessed as reduction in viability at 100 uM measured after 24 hrs by microscope based analysis relative to control. More on the design: species or system Danio rerio. The following applies: read-out: Activity.
The test system of data set [3] is Caenorhabditis elegans. The data set can be described thus: Nematicidal activity against Caenorhabditis elegans assessed as reduction in larval motility. Type of data set: functional, organism-based.
Data set [4] concerns Caenorhabditis elegans. The data set can be described thus: Nematicidal activity against Caenorhabditis elegans assessed as total paralysis at 100 to 200 uM relative to control. The data set is classed as functional. Particulars: dose 100-200 µM.

On to `C=CCCCCCCCCC[C@@H](O)[C@H](C)N` [HALAMINOL A], for which, in data set [1], the mortality at 24 h, 50 µM is 100%. The mortality at 24 h, 100 µM in data set [2] amounted to 66.6%.
Take `CC1=CC(=O)C[C@@H]2[C@@](C)(CC/C(C)=C/C[n+]3cn(C)c4ncnc(N)c43)[C@H](C)CC[C@@]12C`: the IC50 in data set [3] is 50 µM. In data set [1], the mortality at 24 h, 50 µM turned out to be 100%. In addition, in data set [4], the Activity is listed as 100%. In data set [2], the mortality at 24 h, 100 µM came out at 100%.
For the compound `CC1=CCC[C@@H]2[C@@](C)(CC/C(C)=C/Cn3c[n+](C)c4ncnc(N)c43)[C@H](C)CC[C@@]12C`, the mortality at 24 h, 50 µM in data set [1] is 100%. The mortality at 24 h, 100 µM in data set [2] amounted to 100%.
